Assay [1] addresses T1, Histone-lysine N-methyltransferase NSD2 (Homo sapiens, UniProt O96028).
T1 sequence (O96028 whole entry): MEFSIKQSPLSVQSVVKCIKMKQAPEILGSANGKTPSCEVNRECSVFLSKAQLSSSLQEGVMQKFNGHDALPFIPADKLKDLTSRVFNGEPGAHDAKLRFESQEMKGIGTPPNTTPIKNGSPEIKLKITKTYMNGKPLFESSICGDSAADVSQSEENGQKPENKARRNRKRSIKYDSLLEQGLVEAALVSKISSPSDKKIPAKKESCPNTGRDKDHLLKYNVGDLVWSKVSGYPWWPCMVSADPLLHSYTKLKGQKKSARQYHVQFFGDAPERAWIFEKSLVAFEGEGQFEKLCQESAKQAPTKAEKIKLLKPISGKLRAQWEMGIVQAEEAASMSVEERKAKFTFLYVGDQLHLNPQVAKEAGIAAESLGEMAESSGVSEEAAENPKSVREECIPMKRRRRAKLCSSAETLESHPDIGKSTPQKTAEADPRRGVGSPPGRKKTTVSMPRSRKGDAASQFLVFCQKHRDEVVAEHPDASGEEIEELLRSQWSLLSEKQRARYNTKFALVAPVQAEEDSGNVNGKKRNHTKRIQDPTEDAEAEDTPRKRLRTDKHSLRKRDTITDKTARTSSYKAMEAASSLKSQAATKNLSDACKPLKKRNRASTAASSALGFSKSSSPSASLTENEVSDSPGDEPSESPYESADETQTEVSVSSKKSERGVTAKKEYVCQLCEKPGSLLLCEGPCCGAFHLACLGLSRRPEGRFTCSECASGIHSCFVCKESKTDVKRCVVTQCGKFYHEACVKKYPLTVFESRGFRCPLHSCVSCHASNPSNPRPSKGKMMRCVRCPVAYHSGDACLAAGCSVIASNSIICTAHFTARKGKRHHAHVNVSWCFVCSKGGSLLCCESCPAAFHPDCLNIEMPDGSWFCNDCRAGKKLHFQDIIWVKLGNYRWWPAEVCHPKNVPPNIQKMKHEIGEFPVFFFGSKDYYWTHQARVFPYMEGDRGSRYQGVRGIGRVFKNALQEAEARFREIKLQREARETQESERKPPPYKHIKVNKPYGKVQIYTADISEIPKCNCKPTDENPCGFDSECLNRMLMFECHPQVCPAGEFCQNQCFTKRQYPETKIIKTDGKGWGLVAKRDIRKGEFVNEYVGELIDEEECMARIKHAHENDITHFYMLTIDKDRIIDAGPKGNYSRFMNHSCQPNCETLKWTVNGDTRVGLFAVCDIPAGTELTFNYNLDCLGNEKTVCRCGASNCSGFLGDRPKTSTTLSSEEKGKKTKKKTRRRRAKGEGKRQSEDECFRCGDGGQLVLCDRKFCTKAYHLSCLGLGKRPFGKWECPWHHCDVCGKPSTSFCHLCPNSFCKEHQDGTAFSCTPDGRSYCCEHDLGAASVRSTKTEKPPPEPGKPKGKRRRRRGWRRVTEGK
It is filed as biochemical.

For assay [2], the target named is T2, Caspase-3 (Homo sapiens, UniProt P42574).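 Further: Dose-response selectivity test against caspase-3 for candidate inhibitors of sentrin-specific proteases (SENPs).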
T2 sequence (P42574 whole entry): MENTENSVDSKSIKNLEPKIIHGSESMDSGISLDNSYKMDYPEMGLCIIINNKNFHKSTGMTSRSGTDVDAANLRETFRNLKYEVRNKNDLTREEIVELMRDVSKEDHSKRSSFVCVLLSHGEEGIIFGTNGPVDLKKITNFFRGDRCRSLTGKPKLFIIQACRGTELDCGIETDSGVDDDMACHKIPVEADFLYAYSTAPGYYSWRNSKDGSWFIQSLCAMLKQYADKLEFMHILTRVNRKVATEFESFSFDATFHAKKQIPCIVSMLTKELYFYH
It is filed as functional.

Assay [3] addresses T3, Sentrin-specific protease 7 (Homo sapiens, UniProt Q9BQF6).
T3 sequence (Q9BQF6 whole entry): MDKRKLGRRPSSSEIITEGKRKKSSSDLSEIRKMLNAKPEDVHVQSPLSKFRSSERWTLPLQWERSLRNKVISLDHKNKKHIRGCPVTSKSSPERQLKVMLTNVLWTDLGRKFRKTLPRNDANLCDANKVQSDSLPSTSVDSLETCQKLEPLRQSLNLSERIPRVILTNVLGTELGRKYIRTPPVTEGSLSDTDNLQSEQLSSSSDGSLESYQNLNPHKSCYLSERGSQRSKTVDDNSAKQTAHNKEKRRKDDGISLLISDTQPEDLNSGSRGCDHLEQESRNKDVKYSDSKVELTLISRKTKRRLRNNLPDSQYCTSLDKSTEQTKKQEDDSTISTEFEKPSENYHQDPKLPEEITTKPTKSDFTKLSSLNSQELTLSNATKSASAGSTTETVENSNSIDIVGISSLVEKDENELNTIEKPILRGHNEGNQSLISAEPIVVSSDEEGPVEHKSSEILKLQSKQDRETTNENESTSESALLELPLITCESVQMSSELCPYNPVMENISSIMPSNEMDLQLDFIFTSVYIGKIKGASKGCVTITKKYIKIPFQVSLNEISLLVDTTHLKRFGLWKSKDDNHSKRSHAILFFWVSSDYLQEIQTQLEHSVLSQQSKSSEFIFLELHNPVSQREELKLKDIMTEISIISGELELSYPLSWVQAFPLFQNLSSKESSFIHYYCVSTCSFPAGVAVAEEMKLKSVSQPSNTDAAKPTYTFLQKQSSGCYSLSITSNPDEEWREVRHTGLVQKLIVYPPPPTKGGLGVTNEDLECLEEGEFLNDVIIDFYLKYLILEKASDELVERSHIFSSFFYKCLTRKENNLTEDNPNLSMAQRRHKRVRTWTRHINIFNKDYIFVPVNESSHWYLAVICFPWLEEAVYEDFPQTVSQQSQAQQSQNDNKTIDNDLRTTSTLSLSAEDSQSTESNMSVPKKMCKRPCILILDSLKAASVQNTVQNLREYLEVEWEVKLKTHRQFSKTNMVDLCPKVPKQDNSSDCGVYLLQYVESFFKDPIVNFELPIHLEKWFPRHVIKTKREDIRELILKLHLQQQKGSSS
Format: functional.

Values joined by “and” are separate entries in the source; they are usually repeats but may differ in a detail not shown here. Identical values can stand only once. Active and inactive are the calls of the source.

With `O=C1C(Cl)=C(NCCN2CCCCC2)C(=O)c2ccccc21`, in assay [1], the AC50 was 6.54 µM (active). `COc1ccc(C(=O)Nc2nc3c(s2)Cc2cc(OC)ccc2-3)cc1`: the IC50 in assay [2] was 3.45 µM (active); in assay [3] it was 2.36 µM (active). Regarding `CC(/C=C1\SC(=S)N(NS(=O)(=O)c2ccccc2)C1=O)=C\c1ccccc1`, the IC50 in assay [2] was 7.87 µM (active); in assay [3] it was 30.7 µM (active). Besides, in assay [1], the AC50 was 13 µM (active). As for `CCN1/C(=C/c2ccc3cc(C)ccc3[n+]2CC)Sc2cc(C)c(C)cc21`, the AC50 in assay [1] is 19.5 µM (active) and 8.3 µM (active). On the same count and under the same terms, the figure for `COc1cc(NCCCNC(C)C)c2nccc(C)c2c1` is 9.71 µM (active). For `Cc1oc2c(c1C(=O)c1ccccc1)C(=O)C(=O)c1ccccc1-2`, the 50% inhibitory concentration (IC50) in assay [2] is 29.3 µM (active); in assay [3], 9.15 µM (active). Also, the AC50 in assay [1] was 14.3 µM (active).

Values taken from ChEMBL document CHEMBL1201862, “PubChem BioAssay data set” (2004).
